Data: paper PMC10932281, “A Combination of β-Aescin and Newly Synthesized Alkylamidobetaines as Modern Components Eradicating the Biofilms of Multidrug-Resistant Clinical Strains of Candida glabrata” (International Journal of Molecular Sciences, 2024)
Converted amounts (≈) assume the structure as drawn. Read-outs that look alike come from different tables or passages of the source.

Columns and labels:
[1] = system: C. glabrata ATCC 90030; assay: MIC90/MFC, EUCAST broth microdilution; assay type: cell-based, Candida glabrata; details: ATCC 90030
[2] = system: C. glabrata 2586 clinical strain; assay: MIC90/MFC, EUCAST broth microdilution; assay type: cell-based, Candida glabrata
[3] = system: C. glabrata 2853 clinical strain; assay: MIC90/MFC, EUCAST broth microdilution; assay type: cell-based, Candida glabrata
[4] = system: C. glabrata strains (ATCC 90030, 2586, 2853); assay: MIC, statements for all tested strains together; assay type: cell-based, Candida glabrata
[5] = system: C. glabrata ATCC 90030; assay: FICI checkerboard, β-aescin with antifungal drugs; assay type: cell-based, Candida glabrata; details: combination with β-aescin
[6] = system: C. glabrata 2586; assay: FICI checkerboard, β-aescin with antifungal drugs; assay type: cell-based, Candida glabrata; details: for FICI: combination with β-aescin
[7] = system: C. glabrata 2853; assay: FICI checkerboard, β-aescin with antifungal drugs; assay type: cell-based, Candida glabrata; details: combination with β-aescin
[8] = system: C. glabrata ATCC 90030; assay: Interaction of AABs (3 µM) with antifungal agents, modified checkerboard; assay type: cell-based, Candida glabrata
[9] = system: C. glabrata 2586; assay: as above; assay type: cell-based, Candida glabrata
[10] = system: C. glabrata 2853; assay: as above; assay type: cell-based, Candida glabrata
[11] = system: C. glabrata strains (ATCC 90030, 2586, 2853); assay: Interaction of AABs with antifungal agents, statements for all tested strains together; assay type: cell-based, Candida glabrata; details: all the tested strains
[12] = Krafft temperature (TK); assay type: physicochemical
Experimental: CHNS elemental analysis was carried out by a Vario EL cube (Elementar, Germany) calibrated on acetanilide. Electrospray ionization mass spectroscopy (ESI-MS) (micrOTOF-Q instrument; Bruker Daltonics, Germany) allowed for the MS spectra to be obtained. The ESI-MS instrument was operated in the positive ion mode and calibrated with the Tunemix^TM mixture (Bruker Daltonics, Germany). The mass accuracy was better than 5 ppm. The obtained mass spectra were analyzed using DataAnalysis 3.4 software (Bruker Daltonics, Germany). ^1H NMR spectra were recorded on a Bruker AMX-500 spectrometer, using CDCl3 as a solvent. ^1H chemical shifts (in ppm) were calibrated to TMS as an internal reference. Melting points were determined using a Boetius melting point apparatus, while Krafft temperatures were determined according to the directions given in [47]. CMC is the minimum concentration above which micelles are formed in aqueous liquid. To obtain the CMC values, we used McGowan’s model. […] Molecular characteristic volumes (Vx) are found by the addition of the atomic characteristic volumes and the subtraction for the same factory (6.56 × 10^−6 m^3 mol^−1) for every covalent bond.

[13] = system: C. glabrata 2586 biofilm; assay: Biofilm eradication on polystyrene, fluorescence microscopy (Syto9/PI); assay type: cell-based, Candida glabrata; details: Nakaseomyces glabratus, 2586BIOFILM, 72 h, read-out: Biofilm Viability [%] 2586 Live; for viability at 1 µM: AAB alone 1 μM; for viability at 2 µM: AAB alone 2 μM; for viability at 3 µM: AAB alone 3 μM
Experimental: (§1) C. glabrata biofilm eradication on polystyrene surfaces was assessed according to the following procedure: 1 mL of C. glabrata culture, 10^6 CFU/mL in RMPI 1640 MOPS-buffered medium, was pipetted into the wells of a 48-well adherent plate. Cultures were incubated at 37 °C for 72 h with shaking (400 RPM). […] Non-treated cells were used as the control. This experiment was carried out in triplicate. The analysis of the biofilm eradication of C. glabrata strains on polystyrene surfaces was performed using fluorescence microscopy (FM). For further information, see Section 4.12. below.
(§2) The 72 h biofilm of C. glabrata strains on polystyrene surfaces was stained on 48-well adherent plates with 1 µL of propidium iodide (Ex λ = 543 nm/Em λ = 617 nm) and 1 µL of SYTO9 (Ex λ = 488 nm/Em λ = 503 nm) for 30 min using a LIVE/DEAD BacLight Bacterial Viability Kit (Thermo Fisher Scientific, Waltham, MA USA). Imaging was performed using a fluorescence microscope (FM) BX51 (Olympus, Tokyo, Japan) equipped with an Orca Flash 40 camera (Hamamatsu, Hamamatsu City, Japan) and 10× objective Plan APO. Scale bar = 100 µm. Detailed computer qualitative and quantitative analyses of the obtained pictures were performed by estimating the coverage area on the polystyrene plate (the percentage of the area occupied by the fungal biofilm). The cell viability analysis was performed by calculating the fluorescence intensity of the dyes (Syto9/PI) used. The acquired images were processed and analyzed using Fiji/ImageJ software ver. 1.53c (NIH, Bethesda, MD, USA). First, maximum intensity projections (MIPs) were obtained from stacks of images. The areas of the binary images were transferred into the original live and dead channel MIP images. The mean fluorescence intensities of all detected objects per field of view were calculated using ImageJ’s Analyze Threshold function (Software: ImageJ version 1.53 from Softonic).

[14] = system: C. glabrata 2853 biofilm; assay: as above; assay type: cell-based, Candida glabrata; details: Nakaseomyces glabratus, 2853BIOFILM, 72 h, read-out: Biofilm Viability [%] 2853 Live; for viability at 1 µM: AAB alone 1 μM; for viability at 2 µM: AAB alone 2 μM; for viability at 3 µM: AAB alone 3 μM
Experimental: as §1, §2

[15] = system: C. glabrata ATCC 90030 biofilm; assay: as above; assay type: cell-based, Candida glabrata; details: Nakaseomyces glabratus, ATCC90030, 72 h, read-out: Biofilm Viability [%] 90030 Live; for viability at 1 µM: AAB alone 1 μM; for viability at 2 µM: AAB alone 2 μM; for viability at 3 µM: AAB alone 3 μM
Experimental: as §1, §2

[16] = system: Balb/3T3 mouse embryonic fibroblasts; assay: Cell proliferation assay (MTT test); assay type: cell-based; details: 24 h
Experimental: Balb/3T3 (ATCC CCL-163) mouse embryonic fibroblasts were cultured in DMEM medium supplemented with 10% fetal bovine serum, 1 mM L-glutamine, and a 1% penicillin/streptomycin solution and were used for our cytotoxicity studies. The cells were cultured at 37 °C and 5% CO2 until the cell density of 10^6 mL^−1 was obtained. Such cells were then seeded in 24-well tissue microplates (2 × 10^4 cells per well) and allowed to adhere overnight under the abovementioned conditions. Cytotoxicity tests were carried out on the cells prepared in this way.
The newly synthesized AABs (C9, C11, C13, and C15) were selected based on previous studies. They were analyzed at the concentrations of 0.25, 0.5, 1, 2, and 3 µM. […] The BALB-3T3 cells were treated with the prepared mixtures, dissolved in a complete cell culture medium, and then incubated for 24 h under the abovementioned conditions. Three independent replicates were performed for each combination of compounds.
The cytotoxic effect of the tested compounds in combination with β-AE was evaluated by measuring mitochondrial dehydrogenase activity using the MTT assay. After a 24 h incubation period, the medium supplemented with the 1mM MTT solution was added to each well. The cultures were continued for another 4 h under the conditions enriched with 5% CO2. After this time, the supernatant was collected, and MTT formazan was extracted from the cells using DMSO. The reaction was then stopped with Sörensen buffer (0.1 mol/L glycine; 0.1 mol/L NaCl; and pH 10.5). The percentage of cytotoxicity was calculated by comparing the absorbance values (λ = 560 nm) of the test sample to the control sample, which was untreated fibroblast cells. In the test performed, the negative control (C−) (sample not treated; PBS added) and positive control (C+) were fibroblast cells treated with 1% SDS [60].

[17] = Nakaseomyces glabratus, read-out: MFC
[18] = Nakaseomyces glabratus, read-out: MIC90
[19] = C9 at constant 3 µM, dilutions in µg/mL
[20] = C11 at constant 3 µM, dilutions in µg/mL
[21] = C13 at constant 3 µM, dilutions in µg/mL
[22] = C15 at constant 3 µM, dilutions in µg/mL
[23] = Nakaseomyces glabratus, ATCC90030, all the tested C. glabrata strains, AAB alone, read-out: MIC converted to
[24] = all the tested C. glabrata strains, AAB alone

SMILES: C[C@@H]1[C@H](O)[C@@H](C)/C=C/C=C/C=C/C=C/C=C/C=C/C=C/[C@H](O[C@@H]2O[C@H](C)[C@@H](O)[C@H](N)[C@@H]2O)C[C@@H]2O[C@](O)(C[C@@H](O)C[C@@H](O)[C@H](O)CC[C@@H](O)C[C@@H](O)CC(=O)O[C@H]1C)C[C@H](O)[C@H]2C(=O)O [Amphotericin B]
- MFC ([1]; Nakaseomyces glabratus, ATCC90030, read-out: MFC): 0.5 µg/mL (≈ 0.541 µM)
- MIC90 ([1]; Nakaseomyces glabratus, ATCC90030, read-out: MIC90): 0.25 µg/mL (≈ 0.271 µM)
- MFC [2, 17]: 1 µg/mL (≈ 1.08 µM)
- MIC90 [2, 18]: 0.25 µg/mL (≈ 0.271 µM)
- MFC [3, 17]: 0.5 µg/mL (≈ 0.541 µM)
- MIC90 [3, 18]: 0.25 µg/mL (≈ 0.271 µM)
- MIC ([4]; Nakaseomyces glabratus, ATCC90030): 0.25 µg/mL (≈ 0.271 µM)
- FICI [5]: 1.5
- Type of interaction with β-AE (by FICI) [6]: additive
- FICI [6]: 1
- FICI ([6]; listed as amphotericin B): 1.0
- FICI [7]: 2.5
- Multiplicity factor (MF) with C9 ([8]; C9 3 µM, |MF| = MIC90 alone/MIC90 with AAB): 1
- MIC90 of antimycotic combined with C9 [8, 19]: 0.25
- Multiplicity factor (MF) with C11 ([8]; C11 3 µM): 2
- MIC90 of antimycotic combined with C11 [8, 20]: 0.12
- Multiplicity factor (MF) with C13 ([8]; C13 3 µM): 2
- MIC90 of antimycotic combined with C13 [8, 21]: 0.12
- Multiplicity factor (MF) with C15 ([8]; C15 3 µM): 4
- MIC90 of antimycotic combined with C15 [8, 22]: 0.06
- Multiplicity factor (MF) with C9 ([9]; C9 3 µM): 2
- MIC90 of antimycotic combined with C9 [9, 19]: 0.12
- Multiplicity factor (MF) with C11 ([9]; C11 3 µM): 2
- MIC90 of antimycotic combined with C11 [9, 20]: 0.12
- Multiplicity factor (MF) with C13 ([9]; C13 3 µM): 2
- MIC90 of antimycotic combined with C13 [9, 21]: 0.12
- Multiplicity factor (MF) with C15 ([9]; C15 3 µM): 4
- MIC90 of antimycotic combined with C15 [9, 22]: 0.06
- Multiplicity factor (MF) with C9 ([10]; C9 3 µM): 1
- MIC90 of antimycotic combined with C9 [10, 19]: 0.25
- Multiplicity factor (MF) with C11 ([10]; C11 3 µM): 2
- MIC90 of antimycotic combined with C11 [10, 20]: 0.12
- Multiplicity factor (MF) with C13 ([10]; C13 3 µM): 2
- MIC90 of antimycotic combined with C13 [10, 21]: 0.12
- Multiplicity factor (MF) with C15 ([10]; C15 3 µM): 4
- MIC90 of antimycotic combined with C15 [10, 22]: 0.06
- Fold increase of activity with C11 ([11]; C11 3 µM): 2 fold
- Fold increase of activity with C13 ([11]; C13 3 µM): 2 fold
- Fold increase of activity with C15 ([11]; C15 3 µM): 4 fold

SMILES: CCCCCCCCCCCCCC(=O)N(C)CCC[N+](C)(C)CC(=O)[O-] [C13]
- TK (Krafft temperature) [12]: 20.5 °C
- MIC90 ([1]; AAB alone): >3 µM/mL
- MIC90 ([2]; AAB alone): >3 µM/mL
- MIC90 ([3]; AAB alone): >3 µM/mL
- MIC [4, 23]: 1150 µg/mL (≈ 3000 µM)
- MIC [4, 24]: 3 µM/mL
- viability at 1 µM [13]: 4.56%
- viability at 2 µM [13]: 4.57%
- viability at 3 µM [13]: 12.9%
- viability at 1 µM [14]: 11.6%
- viability at 2 µM [14]: 4.98%
- viability at 3 µM [14]: 14.2%
- viability at 1 µM [15]: 1.96%
- viability at 2 µM [15]: 6.55%
- viability at 3 µM [15]: 2.26%
- Cytotoxicity level ([16]; 2 µM/mL): 85%

SMILES: CCCCCCCCCCCCCCCC(=O)N(C)CCC[N+](C)(C)CC(=O)[O-] [C15]
- TK (Krafft temperature) [12]: 36.4 °C
- MIC90 ([1]; AAB alone): >3 µM/mL
- MIC90 ([2]; AAB alone): >3 µM/mL
- MIC90 ([3]; AAB alone): >3 µM/mL
- MIC [4, 23]: 1240 µg/mL (≈ 3000 µM)
- MIC [4, 24]: 3 µM/mL
- viability at 1 µM [13]: 6.07%
- viability at 2 µM [13]: 2.33%
- viability at 3 µM [13]: 6.23%
- viability at 1 µM [14]: 63%
- viability at 2 µM [14]: 17%
- viability at 3 µM [14]: 6.64%
- viability at 1 µM [15]: 41.9%
- viability at 2 µM [15]: 28.8%
- viability at 3 µM [15]: 41.4%
- Decrease of viability ([16]; 0.25 µm/mL): 15%
- Decrease of viability ([16]; 0.5 µm/mL): 28%
